The test has as its target hNav1.7 (Homo sapiens (Human), UniProt Q15858). Put plainly: Patch voltage clamp electrophysiology assay (EP), Syncropatch 384PE, CHO cells expressing Nav1.7. It counts as cell-based. Conditions: holding potential −50 mV; 7.5 min compound incubation; read-out: EP SP hNav1.7 EVO (IC50). From the text: Example 101c: Electrophysiological Assay (EP) (In Vitro Assay)
Patch voltage clamp electrophysiology allows for the direct measurement and quantification of block of voltage-gated sodium channels (NaV's), and allows the determination of the time- and voltage-dependence of block which has been interpreted as differential binding to the resting, open, and inactivated states of the sodium channel (Hille, B., Journal of General Physiology (1977), 69: 497-515).
The following voltage clamp electrophysiology studies are performed on representative compounds using cells heterologously expressing Nav1.7 or Nav1.5 channels. cDNAsfor Nav1.7 (NM_002977) and Nav1.5 (AC137587) are stably expressed in Chinese Hamstr Ovary (CHO) cells and CHL (Chinese Hamster Lung) cells respectively. Sodium currents are measured in the whole-cell configuration using Syncropatch 384PE (Nanlon Technologies, Germany). 1NPC®-384 chips with custom medium resistance and single hole mode are used. Internal solution consists of (in mM): […], 10 CsCl, 20 EGTA, and 10 Hepes (pH adjusted to 7.2); and external solution contains (in mM): 60 NMDG, 80 NaCl, 4 KCl, 1 MgCl2, 2 CaCl2), 2 D-Glucose monohydrate, 10 Hepes (pH adjusted to 7.4 with NaOH).
After system flushing, testing compounds are dissolved in external solution containing 0.1% Pluronic F-127. The chip is moved into the measuring head and the instrument primes the chip with external and internal solutions. 10 μl cells are added to the chip from a cell hotel, and a negative pressure of −50 mBar is applied to form a seal. Following treatment with seal enhancer solution and wash-off with external solution, negative pressure of −250 mbar is applied for 1 second to achieve the whole-cell configuration, followed by three washing steps in external solution. 20 μl of compounds is added to 40 μl in each well (1:3 dilution of compounds), and after mixing, 20 μl is removed so the volume is retained at 40 ul. After approximately 13 minutes recordings, 20 μl/well of 2 uM TTX, or 333 uM Tetracaine (for Nav1.5) is added to achieve full block.
For voltage protocol, an holding potential of −50 mV is applied during the whole experiment. A depolarizing step is applied to −10 mV for 10 ms, followed by a hyperpolarization step to −150 mV for 20 ms to allow channel recovery from inactivation. A second depolarizing step is applied from −150 mV to −10 mV for 10 ms, where currents are measured to derive blocking effects of compounds. Inhibition is determined based on 7.5 min of compound incubation.

Each structure is given as a SMILES string. Structures can show the parent of a compound that is named as a salt.

hNav1.7, sequence (Q15858 other isoform, or with tags, fused parts or gaps): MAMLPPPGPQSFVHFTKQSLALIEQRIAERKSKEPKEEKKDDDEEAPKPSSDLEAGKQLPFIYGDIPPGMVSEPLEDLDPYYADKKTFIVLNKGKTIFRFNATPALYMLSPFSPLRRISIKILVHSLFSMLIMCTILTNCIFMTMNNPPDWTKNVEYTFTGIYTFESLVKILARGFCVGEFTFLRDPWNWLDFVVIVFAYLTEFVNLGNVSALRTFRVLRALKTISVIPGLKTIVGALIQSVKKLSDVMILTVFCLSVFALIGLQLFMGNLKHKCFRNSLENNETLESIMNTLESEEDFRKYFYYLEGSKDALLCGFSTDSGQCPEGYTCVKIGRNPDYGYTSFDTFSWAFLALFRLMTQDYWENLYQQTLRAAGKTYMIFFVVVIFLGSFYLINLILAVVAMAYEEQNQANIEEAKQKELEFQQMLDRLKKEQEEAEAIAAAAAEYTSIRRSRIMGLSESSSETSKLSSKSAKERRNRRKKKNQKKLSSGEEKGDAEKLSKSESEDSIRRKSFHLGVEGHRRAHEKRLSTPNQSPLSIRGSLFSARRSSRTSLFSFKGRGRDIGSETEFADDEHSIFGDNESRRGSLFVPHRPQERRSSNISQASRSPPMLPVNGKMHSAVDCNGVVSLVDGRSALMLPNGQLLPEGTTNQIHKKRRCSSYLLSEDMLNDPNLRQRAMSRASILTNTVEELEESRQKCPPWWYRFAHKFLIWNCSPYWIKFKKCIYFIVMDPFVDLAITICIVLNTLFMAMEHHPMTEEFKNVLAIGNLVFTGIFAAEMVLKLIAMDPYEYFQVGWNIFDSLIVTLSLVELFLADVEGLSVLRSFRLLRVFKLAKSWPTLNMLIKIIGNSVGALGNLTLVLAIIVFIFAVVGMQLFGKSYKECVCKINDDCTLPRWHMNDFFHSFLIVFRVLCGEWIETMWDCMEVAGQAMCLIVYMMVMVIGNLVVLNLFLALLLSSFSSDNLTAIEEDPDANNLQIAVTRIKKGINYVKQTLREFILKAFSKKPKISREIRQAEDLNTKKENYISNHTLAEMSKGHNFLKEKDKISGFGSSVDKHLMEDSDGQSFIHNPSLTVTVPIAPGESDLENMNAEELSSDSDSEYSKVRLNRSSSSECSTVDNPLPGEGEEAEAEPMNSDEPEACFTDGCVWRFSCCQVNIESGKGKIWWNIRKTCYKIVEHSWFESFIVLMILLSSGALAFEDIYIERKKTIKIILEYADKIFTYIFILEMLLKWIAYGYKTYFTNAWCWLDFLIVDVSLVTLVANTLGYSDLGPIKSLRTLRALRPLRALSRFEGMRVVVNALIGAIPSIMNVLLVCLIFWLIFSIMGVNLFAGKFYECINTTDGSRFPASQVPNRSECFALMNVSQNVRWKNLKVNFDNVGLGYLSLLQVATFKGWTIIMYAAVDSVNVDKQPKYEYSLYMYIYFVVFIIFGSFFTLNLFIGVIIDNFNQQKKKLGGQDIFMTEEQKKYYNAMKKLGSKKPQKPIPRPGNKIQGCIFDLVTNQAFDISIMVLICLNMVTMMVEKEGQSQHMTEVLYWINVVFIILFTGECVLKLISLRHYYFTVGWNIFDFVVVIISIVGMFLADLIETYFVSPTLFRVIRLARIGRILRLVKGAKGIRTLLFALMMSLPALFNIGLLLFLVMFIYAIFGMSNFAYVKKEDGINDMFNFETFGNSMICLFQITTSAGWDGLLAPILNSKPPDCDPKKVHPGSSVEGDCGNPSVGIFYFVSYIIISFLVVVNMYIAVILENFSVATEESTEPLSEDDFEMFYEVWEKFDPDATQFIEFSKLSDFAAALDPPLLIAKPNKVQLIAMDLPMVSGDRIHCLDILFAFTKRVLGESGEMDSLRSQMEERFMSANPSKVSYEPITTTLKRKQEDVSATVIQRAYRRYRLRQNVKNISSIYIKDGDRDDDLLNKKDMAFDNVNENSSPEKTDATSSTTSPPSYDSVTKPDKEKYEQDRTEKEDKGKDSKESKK

Turning to `CN([C@@H]1CCOC1)[C@]1(CCc2cccc(C(F)(F)F)c2)CCCN(c2cc(F)c(S(=O)(=O)Nc3ccncn3)c(F)c2)C1` (single isomer, unassigned) [Example 81], the IC50 was 0.681 nM.

As to `CN(C)[C@]1(CCc2cccc(C(F)(F)F)n2)CCCN(c2cc(F)c(S(=O)(=O)Nc3ccncn3)c(F)c2)C1` [Example 98, (S)-4-(3-(Dimethylamino)-3-(2-(6-(trifluoromethyl)pyridin-2-yl)ethyl)piperidin-1-yl)-2,6-difluoro-N-(pyrimidin-4-yl)benzenesulfonamide formate], the IC50 worked out at 62.5 nM.

Turning to `CN1CC(N(C)[C@]2(CCc3cccc(C(F)(F)F)c3)CCCN(c3ccc(S(=O)(=O)Nc4ccncn4)c(F)c3)C2)C1` [Example 35, (R)-2-Fluoro-4-(3-(methyl(1-methylazetidin-3-yl)amino)-3-(3-(trifluoromethyl)phenethyl)piperidin-1-yl)-N-(pyrimidin-4-yl)benzenesulfonamide], the IC50 worked out at 40.7 nM.

Turning to `CN(C)[C@@]1(CCc2ccc(C(F)(F)F)cc2Cl)CCCN(c2cc(F)c(S(=O)(=O)Nc3ccncn3)c(F)c2)C1` (single isomer, unassigned) [Example 56], the IC50 amounted to 353 nM.

Turning to `CN(C)[C@@]1(CCc2cccc(C(F)(F)F)c2)CCCN(c2cc(F)c(S(=O)(=O)Nc3ccncn3)cc2Cl)C1` (single isomer, unassigned) [Example 11], the IC50 is 742 nM.

On to `CN(C)[C@@]1(CCc2ccc(Cl)c(C(F)(F)F)c2)CCCN(c2ccc(S(=O)(=O)Nc3ccncn3)c(F)c2)C1` (single isomer, unassigned) [Example 19], for which the IC50 is 60.4 nM.

Take `CN1CCC(CN(C)C2(CCc3cccc(C(F)(F)F)c3)CCCN(c3ccc(S(=O)(=O)Nc4ccncn4)c(F)c3)C2)C1` (stereo not shown) [Example 31, 2-Fluoro-4-(3-(methyl((1-methylpyrrolidin-3-yl)methyl)amino)-3-(3-(trifluoromethyl)phenethyl)piperidin-1-yl)-N-(pyrimidin-4-yl)benzenesulfonamide formate]: the 50% inhibitory concentration (IC50) was 8.59 nM.

As for `CN(C)[C@@]1(CCc2ccc(Cl)c(C(F)(F)F)c2)CCCN(c2cc(F)c(S(=O)(=O)Nc3ccncn3)c(F)c2)C1` (single isomer, unassigned) [Example 54], the IC50 amounted to 362 nM.

As to `CN(C)[C@]1(CCc2ccc(C(F)(F)F)c(Cl)c2)CCCN(c2cc(F)c(S(=O)(=O)Nc3ccncn3)c(F)c2)C1` (single isomer, unassigned) [Example 51], the IC50 is 1.03 nM.

Consider `O=S(=O)(Nc1ccncn1)c1ccc(N2CCC[C@](CCc3cccc(C(F)(F)F)c3)(N3CCCCC3)C2)cc1F` (single isomer, unassigned) [Example 25, formate], for which the IC50 came to 312 nM.

For the compound `Cc1cc(N2CCC[C@@](CCc3cccc(C(F)(F)F)c3)(N(C)C)C2)cc(Cl)c1S(=O)(=O)Nc1ccncn1` (single isomer, unassigned) [Example 67, formate], the IC50 was found to be 2.4 nM.

As to `CN(C)[C@]1(CCc2ccc(Cl)c(C(F)(F)F)c2)CCCN(c2ccc(S(=O)(=O)Nc3ccncn3)c(F)c2)C1` (single isomer, unassigned) [Example 20, formate], the IC50 worked out at 2.74 nM.

For the compound `Cc1cc(N2CCC[C@@](CCc3cccc(C(F)(F)F)c3)(N(C)C)C2)cc(C)c1S(=O)(=O)Nc1ccncn1` (single isomer, unassigned) [Example 63, formate], the half-inhibitory concentration (IC50) worked out at 177 nM.

In the case of `O=S(=O)(Nc1ccncn1)c1ccc(N2CCC[C@](CCc3cccc(C(F)(F)F)c3)(N3CCCC3)C2)cc1F` (single isomer, unassigned) [Example 23], the IC50 turned out to be 8.62 nM.

On to `CN(C)[C@]1(CCc2cccc(C(F)(F)F)c2)CCCN(c2cc(F)c(S(=O)(=O)Nc3ccncn3)cc2F)C1` (single isomer, unassigned) [Example 39], for which the IC50 is 9110 nM.

With `CN(C)[C@]1(CCc2cccc(C(F)(F)F)c2)CCCN(c2cc(F)c(S(=O)(=O)Nc3ccncn3)cc2Cl)C1` (single isomer, unassigned) [Example 12], the IC50 turned out to be 51.5 nM.

(Values after patent US20240239766A1, “3-AMINO PIPERIDYL SODIUM CHANNEL INHIBITORS” (Genentech, Inc., priority 2021, published 2024).)
